`CC(c1oc2ccccc2c(=O)c1-c1cccc(F)c1)n1nc(C#CCO)c2c(N)ncnc21` (stereo not given) gave a melting point of 171 to 173 °C. `NC(=O)CNc1ncccc1NC(=O)c1ccccn1` showed a melting point of 188 to 190 °C. Compound `N#CC1=C2C(=NC1=O)c1c(Sc3ccc(N)cc3)ccc3c(Sc4ccc(N)cc4)ccc2c13` has a melting point of 288 to 290 °C. Compound `CC1(C)Cc2cccc(OCC3CO3)c2O1` (stereo not given) has a melting point of 51 to 52 °C. In the case of `NC(=O)c1ncn2c1[C@@H]1CCN1C(=O)c1cc(Cl)ccc1-2`, the melting point is reported as 251 to 253 °C. With `Cc1nc(-c2ccc(Cl)cc2C(=O)c2ccccc2)n[nH]1` the melting point was 148 to 150 °C. `OCCCc1cnoc1-c1ccc(Cl)c(Cl)c1` gave a melting point of 66 to 67 °C. With `CCn1ncc2c3onc(-c4ccc(C)cc4)c3cnc21` the melting point was 173 to 175 °C. In the case of `CCCCCCCCOc1ccc(C2CN=C(c3c(F)cccc3Cl)S2)cc1` (stereo not given), the melting point is reported as 41 to 41.5 °C. Work on `N#Cc1ncn2c(C(F)(F)F)cc(-c3ccc(OCC(F)(F)F)c(C(F)(F)F)c3)nc12` yielded a melting point of 189 °C. Work on `CC1(C)c2cc(C#N)ccc2OC1Cl` (stereo not given) yielded a melting point of 105 to 106 °C. Compound `CC1(C)CCCC(=Cc2ccc(Cl)cc2)C1(O)Cn1cncn1` (stereo not given) has a melting point of 179 °C. `O=C(O)COc1cc2c(=O)c3c(F)cccc3oc2cc1Cl` gave a melting point of 242 to 245 °C. `CNC1CCN(c2c(F)c(N)c3c(=O)c(C(=O)O)cn(C4CC4)c3c2C)C1` (stereo not given) showed a melting point of 200 to 202 °C. `CC(C(=O)O)c1ccc(C(=O)c2cccs2)c(Cl)c1` (stereo not given) showed a melting point of 82.5 °C. Work on `CC(C)(NC=O)c1cccc(C(F)(F)C(F)(F)c2ccccc2)c1` yielded a melting point of 90 to 95 °C. `Nc1ccc(N2CCN(CCC3(Cc4ccc(F)cc4)OCCO3)CC2)nc1N` showed a melting point of 118 to 119 °C. `COc1ccncc1-c1ccc(OC2SCC(O)C(O)C2O)cn1` (stereo not given) showed a melting point of 207 °C. Work on `CCOC(=O)COc1ccc(CC2SC(=O)NC2=O)cc1` (stereo not given) yielded a melting point of 105 to 106 °C. With `CCCc1nn(C)c2c(OCCOc3ccc(CC(OCC)C(=O)OCC)cc3)nc(-c3ccccc3)nc12` (stereo not given) the melting point was 80 to 82 °C. With `CN(C(=O)OC(C)(C)C)c1cc(Sc2ccc(O)cc2)ccc1N` the melting point was 62 to 67 °C. `CCOCc1nc2c(N)nc3ccccc3c2n1CCCc1cc(-c2cccnc2)no1` showed a melting point of 199 to 200 °C. Work on `CON=C1Cc2ccccc2N(C(N)=O)c2ccccc21` yielded a melting point of 158 to 159 °C. Compound `Cc1ccc(C(=O)O)c(C2=NC(=O)C(C)(C(C)C)N2)n1` (stereo not given) has a melting point of 139 to 142 °C. `Cc1[nH]cc(C(N)=O)c(=O)c1I` showed a melting point of 296 to 298 °C. With `CCC/C(=C\C=O)c1ccc2c(c1)C(CC)(CC)OC(=O)N2` the melting point was 173 to 179 °C. In the case of `CNS(=O)(=O)Cc1ccc2[nH]cc(CCCN3C(=O)c4ccccc4C3=O)c2c1`, the melting point is reported as 58 to 66 °C. `Cc1ccc(C)c(-c2nsc3ccccc23)c1` showed a melting point of 87 °C. In the case of `CC(O)c1ccc(O)c(Cl)n1` (stereo not given), the melting point is reported as 89 to 92 °C. Compound `NCCCCc1cccc(C2=NNC(=O)CC2)c1` has a melting point of 128 to 130 °C. `Cc1cc(C)c2nsnc2c1N` showed a melting point of 113 to 114 °C. For `CC(=O)Nc1cc(-c2ccncn2)c[nH]c1=O`, the melting point was > 250 °C. Compound `CCC(c1cc(C(=O)Nc2ccc(-c3ccc(C(=O)NS(C)(=O)=O)cc3C)cc2)ccc1OC)N(C)C` (stereo not given) has a melting point of 253 to 254 °C. `CCOC(=O)c1cn(Cc2ccc(OCc3ccccc3)cc2)nc1-c1ccccc1` showed a melting point of 102 to 103 °C. `C=Cc1cncc(-c2cc(NC(=O)Cc3ccc4ccccc4c3)n[nH]2)c1` showed a melting point of 218 to 220 °C. Compound `CCCC(=O)c1c(C(C)(C)C)cc(C=[N+]([O-])C(C)(C)C)cc1C(C)(C)C` has a melting point of 217 to 236 °C. For `Cc1cc2c3c(ccn3-c3ccccc3C(N3CCN(C)CC3)=N2)c1`, the melting point was 167 to 168 °C. `Cc1cc(O)c(SCC2CCCCC2)c(=O)o1` showed a melting point of 81.5 to 83 °C. `COc1ccc(-c2nc(N)n3nc(-c4ccco4)nc3n2)cc1OC` gave a melting point of 205 to 208 °C. Compound `CCCNC(=O)ON(C(=O)NCCC)C(=O)C1CC1` has a melting point of 76 to 78 °C. With `CCCCCc1ccc(NS(=O)(=O)c2ccc(N3CCNC3=O)cc2)cc1` the melting point was 207 to 209 °C. `CO/C(=C\C=C\c1cc2ccccc2s1)C(=O)NC1CC(C)(C)N(C)C(C)(C)C1` showed a melting point of 240 °C. Compound `CCCc1c2c(cc3c(=O)cc(C(=O)OCC)oc13)CCCC2` has a melting point of 98 to 99.5 °C. For `COc1cc(N)c2c(c1)C(=O)CCN2`, the melting point was 107 to 110 °C. In the case of `COc1ccc(N2C(=O)C(O)C2c2ccccc2Cl)cc1` (stereo not given), the melting point is reported as 178 to 180 °C. `CC(CCC(O)C(C)(C)O)C1CCC2C3CC=C4CC(O)CCC4(C)C3CCC12C` (stereo not given) gave a melting point of 195 to 199 °C. In the case of `NNC(=S)NN=Cc1ccco1`, the melting point is reported as 186 to 187 °C. For `[N-]=[N+]=NC[C@H]1CN(c2ccc(Br)cn2)C(=O)O1`, the melting point was 64 to 67 °C. With `CN(C(=O)Nc1ccccc1F)C(Cl)C(Cl)(Cl)Cl` (stereo not given) the melting point was 130 to 141 °C. Work on `c1coc(-c2nc(NCC3CC3)cc(-n3cccn3)n2)c1` yielded a melting point of 101 to 102 °C. For `COC(=O)[C@@H]1Cc2ccccc2N1C(=O)[C@H](CC(=O)O)NC(=O)C(F)(F)F`, the melting point was 157 to 158 °C. For `CCC(C)(C)NC(Nc1cc(OC)cc(OC)c1)=C(C#N)S(=O)(=O)c1ccc(Cl)cc1`, the melting point was 189 to 190 °C. `N#CC(=Cc1ccc([N+](=O)[O-])cc1)c1ccc([N+](=O)[O-])cc1` gave a melting point of 216 to 218 °C. `Cc1cc(C(=N)NO)cc(C)c1OCCCc1ccco1` showed a melting point of 100 to 101 °C. Compound `COc1ccc(-c2ccccc2)c2ccc(C)nc12` has a melting point of 133 to 134 °C. Work on `CC(C(N)=O)c1ccc2c(c1)CCc1ccccc1O2` (stereo not given) yielded a melting point of 122 to 123 °C. Work on `C#CC1(OC(C)=O)CCC2C3CCC4=CC(=O)C=CC4(C)C3CCC21C` (stereo not given) yielded a melting point of 172 to 173 °C. Work on `Cc1ccc(CC2CCN(C(=O)c3cc(=O)c4cc(O)ccc4[nH]3)CC2)cc1` yielded a melting point of 152 °C. `COCOc1ccc(C=CC(=O)c2c(OC)cc(OC)c(CC=C(C)C)c2O)cc1OC` gave a melting point of 126 to 127 °C. In the case of `N#Cc1ccc(CC23CCCN2C(=O)N(Cc2cc(Cl)cc(Cl)c2)C3=O)cc1` (stereo not given), the melting point is reported as 124 °C. `CCOC(=O)c1cn(-c2ccc(F)cc2F)c2nc(OS(=O)(=O)c3ccccc3[N+](=O)[O-])c(F)cc2c1=O` showed a melting point of 157 to 160 °C. In the case of `CN(C)CCCn1c(-c2ccccc2)cc2ccccc21`, the melting point is reported as 52 °C. `O=C1c2ccccc2CN1C1CCN(C/C=C\CC2c3ccccc3-c3ccccc32)CC1` gave a melting point of 112 to 116 °C. For `CON(O)C(=O)c1ccccc1[N+](=O)[O-]`, the melting point was 104 °C. Compound `CN(C)CCC(=O)OC1c2ccccc2C(=O)N1c1ccc2ccc(Cl)nc2n1` (stereo not given) has a melting point of 150 °C. In the case of `C[C@@H]1OCCN(c2nc(N3CCOCC3)nc(-n3c(C(F)F)nc4ccccc43)n2)[C@@H]1C` (relative stereo), the melting point is reported as 176 to 178 °C. For `C(#Cc1cccnc1)C1=CCN(Cc2c[nH]c3ncccc23)CC1`, the melting point was 170 to 172 °C. `Cn1c([N+](=O)[O-])cnc1-c1nc2ccccc2[nH]1` gave a melting point of 257 °C. In the case of `COc1ccc(N2CCN(CC(O)COc3ccc(OCc4ccccc4)cc3)CC2)c(OC)c1` (stereo not given), the melting point is reported as 110 to 112 °C. Work on `COCCOCCn1cc(C(=O)NCc2ccc(Cl)cc2)c(=O)c2cc(CSC)ccc21` yielded a melting point of 154 to 155 °C. `Cc1csc2nc(-c3ccc(C(=O)O)cc3)nc(NCc3ccccc3)c12` gave a melting point of 270 °C. `CCc1nc(Cl)c(C(=O)NC)n1Cc1ccc2oc(-c3ccccc3N)c(Br)c2c1` showed a melting point of 68 to 70 °C. `Nc1ccccc1C(=O)N1CCN(CCc2ccc(Cl)cc2)CC1` gave a melting point of 108 to 109 °C. For `CC(C)(C)OC(=O)N1CC(CCl)c2c1cc([N+](=O)[O-])c1ccccc21` (stereo not given), the melting point was 168 to 169 °C. `COc1cc(CC(C#N)C(OC)OC)cc(OC)c1Cl` (stereo not given) showed a melting point of 84 °C. In the case of `O=c1[nH]c(C(F)(F)F)c(Br)c(=O)n1-c1c(Cl)cc(Cl)cc1Cl`, the melting point is reported as 219 to 222 °C. `COc1ccc(CNc2nc(C)nc(C)c2Cl)cc1Oc1ccc2ncc([N+](=O)[O-])n2n1` showed a melting point of 273 to 274 °C. `N=C(N)N1CCc2[nH]cnc2C1` showed a melting point of 310 °C. Compound `CN1CCOC(CN2C(=O)C3(COc4cc5c(cc43)OCCO5)c3ccccc32)C1` (stereo not given) has a melting point of 85 to 90 °C. For `NC(=O)c1cc2ccccc2[nH]1`, the melting point was 231 to 232 °C. Compound `CCOC(=O)CCc1cn(-c2ccc(Cl)cn2)nc1C(C)C` has a melting point of 70 to 71 °C. Compound `O=C(NC=CC1OC1CCCNC(=O)c1ccc(OC(F)(F)F)cc1)c1ccc(OC(F)(F)F)cc1` (stereo not given) has a melting point of 121 to 123 °C. Work on `CC1=C(C(=O)NC(C)(C)C)C(c2ccccc2Br)C(C(=O)OC(C)C)=C(COCCn2c(C)nc3cnccc32)N1` (stereo not given) yielded a melting point of 160 to 165 °C. In the case of `CCOC(=O)C1=C(O)c2cc3ccccc3n2CC1`, the melting point is reported as 101 to 103 °C. `O=[N+]([O-])c1cc(Cl)c2c(c1)C(F)(F)C(F)(F)S2` gave a melting point of 61.5 to 62 °C. Work on `O=C(c1ccc(F)cc1)N1CCC[C@H](c2nc(-c3cscn3)no2)C1` yielded a melting point of 118 to 120 °C. Work on `Cc1ccc(S(=O)(=O)Oc2ccc(C(C)(C)C)cc2C(C)(C)C)cc1` yielded a melting point of 81 °C. Compound `CCNC(=O)C(C)(C)c1ccc(C(=O)Nc2cn3cc(Cl)ccc3n2)cc1` has a melting point of 228 to 230 °C. `C[C@@H]1Cc2ccsc2[C@H](c2ccccc2)N1CCNS(=O)(=O)c1ccc(NS(C)(=O)=O)cc1` (relative stereo) gave a melting point of 155 to 158 °C. `Cc1ccc(S(=O)(=O)OCC2COc3ccc4nc(C)c(C)nc4c3O2)cc1` (stereo not given) showed a melting point of 153 to 155 °C. Work on `O=C(CN1CCSCC1)N1CCN(Cc2ccc3c(c2)-c2[nH]nc(-c4ccsc4)c2C3)CC1` yielded a melting point of 226 to 228 °C. In the case of `O=C1CC(=C[N+](=O)[O-])Nc2ccccc2N1c1ccccc1`, the melting point is reported as 231 to 234 °C. Compound `CCN1C[C@@H](O)[C@H](N(C)C(=O)c2ccc([N+](=O)[O-])cc2)C1` (relative stereo) has a melting point of 104 to 108 °C. With `CC(=O)NN[C@@H]1c2cc(C#N)ccc2OC(C)(C)[C@H]1O` (relative stereo) the melting point was 209 to 210 °C. Compound `COc1c(-c2ccc3cc(NS(C)(=O)=O)ccc3c2)cc(-n2ccc(=O)[nH]c2=O)cc1C(C)(C)CO` has a melting point of 256 to 257 °C. In the case of `COc1cc(C=O)cc(OC)c1Cl`, the melting point is reported as 112 to 113 °C. For `C=CCn1c(C)c(C)c2cnnc(SCc3ccc(Cl)cc3)c21`, the melting point was 107 to 108 °C. Work on `CC(=O)Nc1ccn(C2OC(COC(C)=O)C(OC(C)=O)C2O[N+](=O)[O-])c(=O)n1` (stereo not given) yielded a melting point of 160 to 161 °C. `Cc1ccc(Cc2cnc(NCCCCc3ncc([N+](=O)[O-])cc3C)[nH]c2=O)cn1` showed a melting point of 141 to 142 °C. Compound `O=C(CC(=O)c1ccc(Br)cc1)c1ccc(Br)cc1` has a melting point of 193 to 195 °C.

Reference: a melting point compilation (Tetko et al.; mined from patent text by program, amines drawn as free bases though some values may be those of a salt)
